Measured values taken from PubChem BioAssay (NCI).
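48-hour exposure; five concentrations; linearly interpolated endpoints. TGI: total growth inhibition.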

Columns and labels:
Assay in all cases: NCI tumour cell line growth inhibition, 48 h
OVCAR-8 ovarian = tested on: OVCAR-8 ovarian
MCF7 breast = tested on: MCF7 breast
HCT-15 colon = tested on: HCT-15 colon
K-562 leukemia = tested on: K-562 leukemia
NCI-H460 lung = tested on: NCI-H460 lung
NCI-H522 lung = tested on: NCI-H522 lung
DMS 273 small cell lung = tested on: DMS 273 small cell lung
UO-31 renal = tested on: UO-31 renal
MOLT-4 leukemia = tested on: MOLT-4 leukemia
P388 leukemia = tested on: P388 leukemia
HOP-18 NSCLC = tested on: HOP-18 NSCLC
UACC-62 melanoma = tested on: UACC-62 melanoma
SNB-78 CNS = tested on: SNB-78 CNS
KM12 colon = tested on: KM12 colon
P388/ADR leukemia = tested on: P388/ADR leukemia
SK-MEL-2 melanoma = tested on: SK-MEL-2 melanoma
HOP-92 NSCLC = tested on: HOP-92 NSCLC
SF-268 CNS = tested on: SF-268 CNS
SN12K1 renal = tested on: SN12K1 renal
SNB-19 CNS = tested on: SNB-19 CNS
A498 renal = tested on: A498 renal
RPMI-8226 leukemia = tested on: RPMI-8226 leukemia
OVCAR-3 ovarian = tested on: OVCAR-3 ovarian
OVCAR-5 ovarian = tested on: OVCAR-5 ovarian
NCI/ADR-RES ovarian = tested on: NCI/ADR-RES ovarian
HL-60(TB) leukemia = tested on: HL-60(TB) leukemia
HCC-2998 colon = tested on: HCC-2998 colon
MALME-3M melanoma = tested on: MALME-3M melanoma
SK-OV-3 ovarian = tested on: SK-OV-3 ovarian
M19-MEL melanoma = tested on: M19-MEL melanoma
NCI-H23 lung = tested on: NCI-H23 lung
HOP-62 NSCLC = tested on: HOP-62 NSCLC
SNB-75 CNS = tested on: SNB-75 CNS
CAKI-1 renal = tested on: CAKI-1 renal
SW-620 colon = tested on: SW-620 colon
SK-MEL-28 melanoma = tested on: SK-MEL-28 melanoma
SK-MEL-5 melanoma = tested on: SK-MEL-5 melanoma
EKVX NSCLC = tested on: EKVX NSCLC
A549 NSCLC = tested on: A549 NSCLC
HT29 colon = tested on: HT29 colon
RXF 393 renal = tested on: RXF 393 renal
DMS 114 small cell lung = tested on: DMS 114 small cell lung
UACC-257 melanoma = tested on: UACC-257 melanoma
U251 CNS = tested on: U251 CNS
COLO 205 colon = tested on: COLO 205 colon
NCI-H226 lung = tested on: NCI-H226 lung
OVCAR-4 ovarian = tested on: OVCAR-4 ovarian
HCT-116 colon = tested on: HCT-116 colon
SN12C renal = tested on: SN12C renal
LOX IMVI melanoma = tested on: LOX IMVI melanoma
SF-539 CNS = tested on: SF-539 CNS
DLD-1 colon = tested on: DLD-1 colon
SF-295 CNS = tested on: SF-295 CNS
IGROV1 ovarian = tested on: IGROV1 ovarian
CCRF-CEM leukemia = tested on: CCRF-CEM leukemia

## CC(=O)OCC1OC(Nc2ncc(-c3ccc(C)cc3)s2)C(OC(C)=O)C(OC(C)=O)C1OC(C)=O (stereo not given)
OVCAR-8 ovarian
  TGI: > 100 µM
MCF7 breast
  TGI: 35.8 µM
HCT-15 colon
  TGI: > 100 µM
K-562 leukemia
  TGI: > 100 µM
NCI-H460 lung
  TGI: > 80.9 µM
NCI-H522 lung
  TGI: > 100 µM
DMS 273 small cell lung
  TGI: > 100 µM
UO-31 renal
  TGI: 41 µM
MOLT-4 leukemia
  TGI: 65.3 µM
P388 leukemia
  TGI: 72.5 µM
HOP-18 NSCLC
  TGI: > 100 µM
UACC-62 melanoma
  TGI: > 77.2 µM
SNB-78 CNS
  TGI: > 100 µM
KM12 colon
  TGI: > 94.1 µM
P388/ADR leukemia
  TGI: > 94.1 µM
SK-MEL-2 melanoma
  TGI: > 78.2 µM
HOP-92 NSCLC
  TGI: > 100 µM
SF-268 CNS
  TGI: > 100 µM
SN12K1 renal
  TGI: > 100 µM
SNB-19 CNS
  TGI: > 100 µM
A498 renal
  TGI: > 100 µM
RPMI-8226 leukemia
  TGI: 65.4 µM
OVCAR-3 ovarian
  TGI: > 88.1 µM
OVCAR-5 ovarian
  TGI: > 100 µM
NCI/ADR-RES ovarian
  TGI: 78 µM
HL-60(TB) leukemia
  TGI: 43.7 µM
HCC-2998 colon
  TGI: > 62.9 µM
MALME-3M melanoma
  TGI: > 100 µM
SK-OV-3 ovarian
  TGI: > 100 µM
M19-MEL melanoma
  TGI: > 31.6 µM
NCI-H23 lung
  TGI: > 100 µM
HOP-62 NSCLC
  TGI: > 100 µM
SNB-75 CNS
  TGI: > 100 µM
CAKI-1 renal
  TGI: > 81.1 µM
SW-620 colon
  TGI: > 100 µM
SK-MEL-28 melanoma
  TGI: > 100 µM
SK-MEL-5 melanoma
  TGI: > 100 µM
EKVX NSCLC
  TGI: > 100 µM
A549 NSCLC
  TGI: > 100 µM
HT29 colon
  TGI: > 100 µM
RXF 393 renal
  TGI: > 100 µM
DMS 114 small cell lung
  TGI: > 100 µM
UACC-257 melanoma
  TGI: 58.3 µM
U251 CNS
  TGI: > 100 µM
COLO 205 colon
  TGI: > 100 µM
NCI-H226 lung
  TGI: 91.4 µM
OVCAR-4 ovarian
  TGI: 60.6 µM
HCT-116 colon
  TGI: > 62.5 µM
SN12C renal
  TGI: 62.2 µM
LOX IMVI melanoma
  TGI: > 68.3 µM
SF-539 CNS
  TGI: > 82.6 µM
DLD-1 colon
  TGI: > 100 µM
SF-295 CNS
  TGI: > 100 µM
IGROV1 ovarian
  TGI: > 100 µM
CCRF-CEM leukemia
  TGI: > 100 µM
